Measured values from PMC7570620, “Synthesis and Evaluation of the Antitumor Activity of Novel 1-(4-Substituted phenyl)-2-ethyl Imidazole Apoptosis Inducers In Vitro” (Molecules, 2020).

What was measured:
L-02 = experiment: MTT cytotoxicity in normal cell line L-02; format: cell-based; details: for IC50: Homo sapiens, L02, normal cell line L-02, MTT; for Selectivity Index A549: IC50 in normal cells (L-02)/IC50 in tumor cells (A549); for Selectivity Index HeLa: IC50 in normal cells (L-02)/IC50 in tumor cells (HeLa); for Selectivity Index SGC-7901: IC50 in normal cells (L-02)/IC50 in tumor cells (SGC-7901)
Method: (§1) The synthesized compounds were subjected to a cytotoxicity assay using the MTT method, as described previously. IC50 is defined as the drug concentration causing a 50% reduction in cell numbers compared to the untreated control. For screening, we evaluated the effects of the compounds on the growth of three cancer cell lines (A549, SGC-7901, and HeLa). In addition, their toxicities were tested using one normal cell line (L-02). The results are the averages of four separate measurements. MTX and 5-FU served as positive controls.
The lack of selectivity between normal and cancer cells is one of the primary limitations of antitumor drugs. We evaluated the cytotoxicity of compounds 4c, 4e–4i, 4l, 4m, and 4q in the normal cell line L-02 to determine the selectivity index (defined as the ratio of cytotoxicity in L-02 cells compared to that in cancer cells). […] Compound 4q yielded satisfactory SI values in HeLa and SGC-7901 cells but an unsatisfactory SI value in A549 cells. […] Compound 4f was selected for the subsequent biological studies.
(§2) The three cancer cell lines namely the human lung cancer cell line (A549), human cervical cancer cell line (HeLa), human gastric carcinoma cell line (SGC-7901), and normal liver cell line (L-02) were acquired from the American Type Culture Collection (Manassas, VA, USA). A549 and SGC-7901 cells were routinely cultured in RPMI-1640. In addition, HeLa and L-02 cells were routinely cultured in DMEM. Media was supplemented with 10% fetal bovine serum (FBS). Cells were maintained at subconfluency at 37 °C in humidified air containing 5% CO2. The cells were monitored daily and maintained at 80% cell density. All compounds tested were dissolved in DMSO and then diluted by the culture medium before the treatment of cultured cells.
(§3) Cytotoxicity of the tested samples was measured against each cell line using the 3-(4,5-dimethylthiazol-2-yl)-2,5-diphenyltetrazolium bromide (MTT) cell viability assay (Maher et al., 2019). Cancer cells (A549, SGC-7901, and HeLa) and L-02 normal cells were harvested during the logarithmic growth phase. All cells were seeded in 96-well plates at 10^4 cells/well and were treated with 5-fluorouracil (5-FU), methotrexate (MTX), and the tested samples for 24 h at final concentrations of […]. Next, 20 µL of freshly prepared MTT (Solarbio) solution (5 mg/mL of MTT in PBS) was added to each well, and the cells were cultured for 4 h at 37 °C. The supernatants were removed and resolved with 100 µL of DMSO, and the cells were shocked for 10 min at 37 °C. The optical density of the samples was measured at 490 nm using a microplate luminometer. Cell viability was expressed as the percentage change in absorbance compared to the control values.

HeLa = experiment: MTT cell viability assay, HeLa; format: cell-based; details: Homo sapiens, 24 h incubation, mean ± SD, n = 4
Method: as §1, §2, §3

SGC-7901 = experiment: MTT cell viability assay, SGC-7901; format: cell-based; details: Homo sapiens, 24 h incubation, mean ± SD, n = 4
Method: as §1, §2, §3

A549 = experiment: MTT cell viability assay, A549; format: cell-based; details: Homo sapiens, 24 h incubation, mean ± SD, n = 4
Method: as §1, §2, §3

IC50 (HeLa)	IC50 (SGC-7901)	IC50 (A549)	melting point	SMILES	IC50 (L-02)	Selectivity Index A549 (L-02)	Selectivity Index HeLa (L-02)	Selectivity Index SGC-7901 (L-02)
7.04 ± 1.07 µM	8.39 ± 1.11 µM	11 ± 1.31 µM	138 to 142 °C	CCc1nccn1-c1ccc(NC(=O)CCC(=O)NCc2ccc(Cl)cc2)cc1 [Compound 4l, 1-(4-(3-(4-Cl-Benzylcarbamoyl)propionamide)phenyl)-2-ethyl Imidazol]	114 ± 16.7 µM	10.36	16.13	13.53
> 100 µM	> 100 µM	> 100 µM	128 to 130 °C	CCCNC(=O)CCC(=O)Nc1ccc(-n2ccnc2CC)cc1 [Compound 4a, 1-(4-(3-(Propylcarbamoyl)propionamide)phenyl)-2-ethyl Imidazole]				
> 100 µM	> 100 µM	86.5 ± 10.6 µM	170 to 173 °C	CCc1nccn1-c1ccc(NC(=O)CCC(=O)Nc2ccccc2)cc1 [Compound 4d, 1-(4-(3-(Phenylcarbamoyl)propionamide)phenyl)-2-ethylimidazole]				
13.3 ± 1.37 µM	10.6 ± 1.75 µM	43.4 ± 5.42 µM	184 to 188 °C	CCc1nccn1-c1ccc(NC(=O)CCC(=O)Nc2ccc(Cl)cc2)cc1 [Compound 4e, 1-(4-(3-(4-Cl-Phenylcarbamoyl)propionamide)phenyl)-2-ethyl Imidazol]	313 ± 18 µM	7.22	23.58	29.48
7.42 ± 0.67 µM	> 100 µM	> 100 µM	229 to 231 °C	CCc1nccn1-c1ccc(NC(=O)CCC(=O)Nc2ccc(N)cc2)cc1 [Compound 4j, 1-(4-(3-(4-amino-Phenylcarbamoyl)propionamide)phenyl)-2-ethylimidazole]				
16.5 ± 1.48 µM	14 ± 2.29 µM	13.8 ± 1.92 µM	75 to 78 °C	CCc1nccn1-c1ccc(NC(=O)CCC(=O)Nc2ccc(F)cc2)cc1 [Compound 4g, 1-(4-(3-(4-F-Phenylcarbamoyl)propionamide)phenyl)-2-ethyl Imidazol]	42.6 ± 6.37 µM	3.10	2.58	3.04
25.5 ± 4.94 µM	40.3 ± 4.67 µM	75.9 ± 4 µM	168 to 171 °C	CCc1nccn1-c1ccc(NC(=O)CCC(=O)NCc2ccc(OC)cc2)cc1 [Compound 4p, 1-(4-(3-(4-Methoxybenzylcarbamoyl)propanamide)phenyl)-2-ethylimidazole]				
4.91 ± 0.71 µM	2.96 ± 0.29 µM	31.1 ± 3.81 µM	116 to 120 °C	CCc1nccn1-c1ccc(NC(=O)CCC(=O)NCc2ccccc2Cl)cc1 [Compound 4q]	> 500 µM			>168.92
> 100 µM	52.5 ± 3.36 µM	> 100 µM	112 to 115 °C	CCCCNC(=O)CCC(=O)Nc1ccc(-n2ccnc2CC)cc1 [Compound 4b, 1-(4-(3-(Butylcarbamoyl)propionamide)phenyl)-2-ethyl Imidazol]				
> 100 µM	> 100 µM	> 100 µM	163 to 165 °C	CCc1nccn1-c1ccc(NC(=O)CCC(=O)O)cc1 [Compound 3, 3-(4-(2-Ethyl-1H-imidazol-1-yl)phenylcarbamoyl)propanoic Acid]				
6.31 ± 0.79 µM	13.1 ± 3.02 µM	32.2 ± 4.79 µM	200 to 202 °C	CCc1nccn1-c1ccc(NC(=O)CCC(=O)Nc2ccc(C)cc2)cc1 [Compound 4h]	290 ± 26.6 µM	9.00	45.94	22.10
12.5 ± 0.91 µM	11.6 ± 1.59 µM	71.3 ± 9.13 µM	164 to 166 °C	CCc1nccn1-c1ccc(NC(=O)CCC(=O)NCc2ccc(C)cc2)cc1 [Compound 4o, 1-(4-(3-(4-Methylbenzylcarbamoyl)propionamide)phenyl)-2-ethylimidazole]				
28.5 ± 2.51 µM	18.5 ± 2.12 µM	33.9 ± 2.43 µM	95 to 98 °C	CCCCCNC(=O)CCC(=O)Nc1ccc(-n2ccnc2CC)cc1 [Compound 4c, 1-(4-(3-(Amylcarbamoyl)propionamide)phenyl)-2-ethyl Imidazole]	114 ± 8.35 µM	3.35	3.99	6.13
7.01 ± 1.3 µM	15.5 ± 2.84 µM	23.8 ± 7.16 µM	160 to 163 °C	CCc1nccn1-c1ccc(NC(=O)CCC(=O)Nc2ccc(OC)cc2)cc1 [Compound 4i, 1-(4-(3-(4-Methoxybenzecarbamoyl)propionamide)phenyl)-2-ethyl Imidazole]	210 ± 25.5 µM	8.81	29.89	13.55
4.07 ± 0.59 µM	15.2 ± 1.74 µM	28.6 ± 2.51 µM	143 to 145 °C	CCc1nccn1-c1ccc(NC(=O)CCC(=O)NCc2ccc(Br)cc2)cc1 [Compound 4m, 1-(4-(3-(4-Br-Benzylcarbamoyl)propionamide)phenyl)-2-ethylimidazole]	210 ± 20.3 µM	7.35	51.59	13.85
9.36 ± 1.78 µM	> 100 µM	> 100 µM	137 to 140 °C	CCc1nccn1-c1ccc(NC(=O)CCC(=O)NCc2ccc(F)cc2)cc1 [Compound 4n, 1-(4-(3-(4-F-Benzylcarbamoyl)propionamide)phenyl)-2-ethylimidazole]				
15.2 ± 1.4 µM	20.6 ± 2 µM	> 100 µM	123 to 126 °C	CCc1nccn1-c1ccc(NC(=O)CCC(=O)NCc2ccccc2)cc1 [Compound 4k, 1-(4-(3-(Benzylcarbamoyl)propionamide)phenyl)-2-ethyl Imidazol]				
> 100 µM	41.9 ± 3.47 µM	> 100 µM	118 to 121 °C	CCc1nccn1-c1ccc(NC(=O)CCC(=O)NCc2ccccn2)cc1 [Compound 4r, 1-(4-(3-(Pyridinemethylcarbamoyl)propionamide)phenyl)-2-ethyl Imidazole]				
15 ± 2.47 µM	13.7 ± 1.29 µM	16 ± 3.2 µM		CN(Cc1cnc2nc(N)nc(N)c2n1)c1ccc(C(=O)N[C@@H](CCC(=O)O)C(=O)O)cc1 [MTX, methotrexate, reference compound]	42.9 ± 8.07 µM	2.68	2.85	3.14
14.8 ± 2.05 µM	56.3 ± 3.24 µM	24 ± 3.47 µM	168 to 170 °C	CCc1nccn1-c1ccc(NC(=O)CCC(=O)Nc2nccs2)cc1 [Compound 4s, 1-(4-(3-(Thiazolcarbamoyl)propionamide)phenyl)-2-ethyl Imidazole]				
